Reference: patent US6894046B2, “IL-5 inhibiting 6-azauracil derivatives” (Janssen Pharmaceutica N.V., priority 1998, dated 2005)

Each molecule was assayed on IL-5 production in human blood (assay: In vitro inhibition of IL-5 production in human blood (phytohemagglutinin-stimulated whole blood, ELISA)). Conditions: test dose 1×10^−6 M, phytohemagglutinin 2 μg/ml, 48 hours.
Type: cell-based
Description: EXAMPLE C.1: IN VITRO INHIBITION OF IL-5 PRODUCTION IN HUMAN BLOOD
Peripheral blood from healthy male donors was drawn into heparinized syringes (12.5 U heparin/ml). Blood samples were three-fold diluted in RMPI 1640 medium (Life Technologies, Belgium) supplemented with 2 mM L-glutamine, 100 U/ml penicillin and 100 μg/ml streptomycin, and 300 μl fractions were distributed in 24-well multidisc plates. Blood samples were preincubated (60 minutes at 37° C.) in a humidified 6% CO2-atmosphere with 100 μl of drug solvent (final concentration 0.02% dimethylsulfoxide in RPMI 1640) or with 100 μl of an appropriate dose of test compound before being stimulated by the addition of 100 μl of phytohemagglutinin HA17 (Murex, UK) at a final concentration of 2 μg/ml. After 48 hours, cell-free supernatant fluids were collected by centrifugation and stored at −70° C. until tested for the presence of IL-5.
IL-5 measurements were conducted as described in Van Wauwe et al. (1996, Inflamm Res, 45, 357-363) on page 358 using ELISA.
Table 6 lists the percentage inhibition of IL-5 production (column “% inh”) at a test dose of 1×10^−6 M, or in case the percentage inhibition is marked with an “*” 1×10^−5 M, for the compounds of the present invention.

Compound | % inh. (percentage inhibition of IL-5 production) [%]
COCc1cccc(-c2nc(C(C)(C)c3c(Cl)cc(-n4ncc(=O)[nH]c4=O)cc3Cl)sc2C)c1 [Compound 44] | 81
CC(C)(c1nc(-c2ccccc2)c(CCc2ccccc2)s1)c1c(Cl)cc(-n2ncc(=O)[nH]c2=O)cc1Cl [Compound 45] | 85
CC(C)(c1nc(-c2ccccc2Cl)c(C=O)s1)c1c(Cl)cc(-n2ncc(=O)[nH]c2=O)cc1Cl [Compound 46] | 44
CCc1sc(C(C)(C)c2c(Cl)cc(-n3ncc(=O)[nH]c3=O)cc2Cl)nc1-c1ccc(-c2ccccc2)cc1 [Compound 48] | 58
CC(C)(c1nc(-c2ccccc2)c(-c2cccc([N+](=O)[O-])c2)s1)c1c(Cl)cc(-n2ncc(=O)[nH]c2=O)cc1Cl [Compound 49] | 95
COc1cccc(-c2sc(C(C)(C)c3c(Cl)cc(-n4ncc(=O)[nH]c4=O)cc3Cl)nc2-c2ccccc2)c1 [Compound 55] | 92
CC(C)(c1nc(-c2ccccc2Cl)c(-c2cccc(C(=O)O)c2)s1)c1c(Cl)cc(-n2ncc(=O)[nH]c2=O)cc1Cl [Compound 56] | −4
CC(C)(c1nc(-c2ccccc2Cl)c(-c2cccc(C#N)c2)s1)c1c(Cl)cc(-n2ncc(=O)[nH]c2=O)cc1Cl [Compound 57] | 85
CC(C)(c1nc(-c2ccccc2)c(-c2cccc(NS(N)(=O)=O)c2)s1)c1c(Cl)cc(-n2ncc(=O)[nH]c2=O)cc1Cl [Compound 60] | 28
CC(C)OC(=O)c1cccc(-c2sc(C(C)(C)c3c(Cl)cc(-n4ncc(=O)[nH]c4=O)cc3Cl)nc2-c2ccccc2Cl)c1 [Compound 65] | 36
CC(C)(c1nc(-c2ccccc2)c(-c2cccc(OS(N)(=O)=O)c2)s1)c1c(Cl)cc(-n2ncc(=O)[nH]c2=O)cc1Cl [Compound 66, 3-[2-[1-[2,6-dichloro-4-(4,5-dihydro-3,5-dioxo-1,2,4-triazin-2(3H)-yl)phenyl]-1-methylethyl]-4-phenyl-5-thiazolyl]phenylsulfamate (ester)] | 53
COCCNCc1cccc(-c2sc(C(C)(C)c3c(Cl)cc(-n4ncc(=O)[nH]c4=O)cc3Cl)nc2-c2ccccc2Cl)c1.Cl [Compound 69] | 45
CC(C)(c1nc(-c2ccc(Cl)s2)cs1)c1c(Cl)cc(-n2ncc(=O)[nH]c2=O)cc1Cl [Compound 73] | 84
CC(C)(c1nc(-c2ccc([N+](=O)[O-])s2)cs1)c1c(Cl)cc(-n2ncc(=O)[nH]c2=O)cc1Cl [Compound 74] | 76
Cc1ccsc1-c1csc(C(C)(C)c2c(Cl)cc(-n3ncc(=O)[nH]c3=O)cc2Cl)n1 [Compound 75] | 91
Cc1ccc(-c2csc(C(C)(C)c3c(Cl)cc(-n4ncc(=O)[nH]c4=O)cc3Cl)n2)s1 [Compound 76] | 75
CC(C)(c1nc(-c2ccc(Br)s2)cs1)c1c(Cl)cc(-n2ncc(=O)[nH]c2=O)cc1Cl [Compound 77] | 84
CC(C)(c1nc(-c2ccc(C#N)s2)cs1)c1c(Cl)cc(-n2ncc(=O)[nH]c2=O)cc1Cl [Compound 78] | 79
CC(C)(c1nc(-c2csc3ccccc23)cs1)c1c(Cl)cc(-n2ncc(=O)[nH]c2=O)cc1Cl [Compound 79] | 75
CC(C)(c1nc(-c2cccnc2)cs1)c1c(Cl)cc(-n2ncc(=O)[nH]c2=O)cc1Cl [Compound 82] | 85
CC(C)(c1nc(-c2ccc(-c3cccs3)s2)cs1)c1c(Cl)cc(-n2ncc(=O)[nH]c2=O)cc1Cl [Compound 84] | 14
CC(C)(c1noc(-c2ccccc2F)n1)c1c(Cl)cc(-n2ncc(=O)[nH]c2=O)cc1Cl [Compound 86] | 88

Same assay, conditions: test dose 1×10^−6 M, phytohemagglutinin 2 μg/ml, 48 hours, read-out: % inh. (percentage inhibition of IL-5 production)

Compound | inhibition at 1 µM [%]
CC(C)(c1nc(-c2ccccc2)c(Cc2ccccc2)s1)c1c(Cl)cc(-n2ncc(=O)[nH]c2=O)cc1Cl [Compound 43, 2-[3,5-dichloro-4-[1-methyl-1-[4-phenyl-5-(phenylmethyl)-2-thiazolyl]ethyl]phenyl]-1,2,4-triazine-3,5(2H,4H)-dione] | 86
CC(C)(c1nc(-c2ccccc2)c(-c2cccc(N)c2)s1)c1c(Cl)cc(-n2ncc(=O)[nH]c2=O)cc1Cl [Compound 50, 2-[4-[1-[5-(3-aminophenyl)4-phenyl-2-thiazolyl]-1-methylethyl]-3,5-dichlorophenyl]-1,2,4-triazine-3,5(2H,4H)-dione] | 91
CC(=O)Nc1cccc(-c2sc(C(C)(C)c3c(Cl)cc(-n4ncc(=O)[nH]c4=O)cc3Cl)nc2-c2ccccc2)c1 [Compound 51, N-[3-[2-[1-[2,6-dichloro-4-(4,5-dihydro-3,5-dioxo-1,2,4-triazin-2(3H)-yl)phenyl]-1-methylethyl]4-phenyl-5-thiazolyl]phenyl]-acetamide] | 73
CC(C)(c1nc(-c2ccccc2)c(-c2cccc(NC(N)=O)c2)s1)c1c(Cl)cc(-n2ncc(=O)[nH]c2=O)cc1Cl [Compound 54, N-[3-[2-[1-[2,6-dichloro-4-(4,5-dihydro-3,5-dioxo-1,2,4-triazin-2(3H)-yl)phenyl]-1-methylethyl]-4-phenyl-5-thiazolyl]phenyl]urea] | 61
CC(C)(c1nc(-c2ccccc2)c(-c2cccc(O)c2)s1)c1c(Cl)cc(-n2ncc(=O)[nH]c2=O)cc1Cl [Compound 58, 2-[3,5-dichloro-4-[1-[5-(3-hydroxyphenyl)4-phenyl-2-thiazolyl]-1-methyl-ethyl]phenyl]-1,2,4-triazine-3,5(2H,4H)-dione] | 84
CC(C)(c1nc(-c2ccccc2Cl)c(-c2cccc(CO)c2)s1)c1c(Cl)cc(-n2ncc(=O)[nH]c2=O)cc1Cl [Compound 59, 2-[3,5-dichloro-4-[1-[4-(2-chlorophenyl)-5-[3-(hydroxymethyl)phenyl]-2-thiazolyl]-1-methylethyl]phenyl]-1,2,4-triazine-3,5(2H,4H)-dione] | 82
CN1CCN(C(=O)c2cccc(-c3sc(C(C)(C)c4c(Cl)cc(-n5ncc(=O)[nH]c5=O)cc4Cl)nc3-c3ccccc3Cl)c2)CC1 [Compound 61, 1-[3-[2-[1-[2,6-dichloro-4-(4,5-dihydro-3,5-dioxo-1,2,4-triazin-2(3H)-yl)phenyl]-1-methylethyl]-4-(2-chlorophenyl)-5-thiazolyl]benzoyl]-4-methylpiperazine] | 29
CC(C)(c1cc(Cl)c(-n2ncc(=O)[nH]c2=O)c(Cl)c1)c1nc(-c2ccccc2Cl)c(-c2cccc(C(N)=O)c2)s1 [Compound 62, 3-[2-[1-[3,5-dichloro-4-(4,5-dihydro-3,5-dioxo-1,2,4-triazin-2(3H)-yl)phenyl]-1-methylethyl]-4-(2-chlorophenyl)-5-thiazolyl]benzamide] | 53
CC(C)(c1nc(-c2ccccc2)c(-c2cccc(NC(=O)N3CCNCC3)c2)s1)c1c(Cl)cc(-n2ncc(=O)[nH]c2=O)cc1Cl [Compound 71, N-[3-[2-[1-[2,6-dichloro-4-(4,5-dihydro-3,5-dioxo-1,2,4-triazin-2(3H)-yl)phenyl]-1-methylethyl]-4-phenyl-5-thiazolyl]-phenyl]-1-piperazinecarboxamide monohydrate] | 27
CC(C)(c1nc(-c2ccsc2)cs1)c1c(Cl)cc(-n2ncc(=O)[nH]c2=O)cc1Cl [Compound 72, 2-[3,5-dichloro-4-[1-methyl-1-[4-(3-thienyl)-2-thiazolyl]ethyl]phenyl]-1,2,4-triazine-3,5(2H,4H)-dione] | 84
CC(C)(c1nc(-c2ccc(N(S(C)(=O)=O)S(C)(=O)=O)s2)cs1)c1c(Cl)cc(-n2ncc(=O)[nH]c2=O)cc1Cl [Compound 81, N-[5-[2-[1-[2,6-dichloro-4-(4,5-dihydro-3,5-dioxo-1,2,4-triazine-2(3H)-yl)phenyl]-1-methylethyl]-4-thiazolyl]-2-thienyl]-N-(methylsulfonyl)methanesulfonamide] | 34
CC(C)(c1nc(-c2ccco2)cs1)c1c(Cl)cc(-n2ncc(=O)[nH]c2=O)cc1Cl [Compound 83, 2-[3,5-dichloro-4-[1-[4-(2-furanyl)-2-thiazolyl]-1-methylethyl]phenyl]-1,2,4-triazine-3,5(2H,4H)-dione] | 78
Cc1ccccc1-c1nc(C(C)(C)c2c(Cl)cc(-n3ncc(=O)[nH]c3=O)cc2Cl)no1 [Compound 87, 2-[3,5-dichloro-4-[1-methyl-1-[5-(2-methylphenyl)-1,2,4-oxadiazol-3-yl]ethyl]phenyl]-1,2,4-triazine-3,5(2H,4H)-dione] | 89
